Each structure is given as a SMILES string.

This passage reports IC50 results from US11667636B2, “Modulators of Mas-related G-protein receptor X2 and related products and methods” (Escient Pharmaceuticals, Inc., priority 2020, dated 2023).

The test system of one assay is Human LAD2 cells. Nature of the assay: Mast Cell Beta-Hexosaminidase Release Assay (Cortistatin-14 induced degranulation). The note with it: 500 nM Cortistatin-14, percent beta-hexosaminidase release, read-out: MRGPRX2 Antagonist Activity. Format: cell-based. How it is done: Human LAD2 cells (NIH) were maintained in an incubator at 37° C. with 5% CO2 and cultured in StemPro-34 serum-free media (Gibco 10639011) supplemented with 2 mM L-glutamine, 100 U/ml penicillin, […] streptomycin and 100 ng/ml SCF (Invitrogen PEP0860), at a concentration of 2-5×10^5 cells/mL, with hemidepletion every 1-2 weeks.
Cells were transferred to SCF-Free medium at 2.5×10^5 cells/mL and kept in an incubator overnight. On the day of the assay, cells were washed twice in Assay Buffer (final concentrations 10 mM HEPES, 137 mM NaCl, 5.6 mM D-glucose, 2.7 mM KCl, 1 mM MgCl, 1.8 mM CalCl2, 0.4 mM Na2HPO4.7H2O, 0.04% BSA, pH=7.4) and plated in a 96-well v-bottom plate at 20,000 cells per well in 80 μL Assay Buffer. Antagonist compounds solubilized at 10 mM in DMSO were diluted in Assay Buffer to 10× final desired concentrations as a 10-point curve (10 μM final top concentration with 1:3 serial dilutions) and 10 μL added per well. Plates were then incubated for 1 hour at 37° C. Agonists were diluted in Assay Buffer to 10× desired concentrations and 10 μL of the appropriate agonist added to each well. The final concentration of Cortistatin-14 (Tocris 3374) used in antagonist assays was 500 nM. Final concentrations of DMSO were kept consistent across the plate. Plates were then incubated in a warm air oven for 30 minutes at 37° C., followed by centrifugation at 4° C. for 5 minutes at 450×g. 50 μL supernatant from each well was then transferred to a 96-well flat bottom plate containing 100 μL substrate solution per well (3.5 mg/mL p-Nitrophenyl-N-acetyl-$-D-glucosaminide (Sigma 487052) in Citrate Buffer containing a final concentration of 40 mM Citric Acid, 20 mM Na2HPO4.7H2O, pH=4.5). To the cell pellets left in the remaining assay buffer, 150 μL 0.1% Triton-X-100 was then added to each well, resuspended by pipetting up and down, and 50 μL cell lysates transferred to a second 96-well flat bottom plate containing 100 μL substrate solution per well. Plates containing transferred supernatant and cell lysates were then incubated in a warm air oven for 90 minutes at 37° C. After incubation, 50 μL of 400 mM Glycine buffer (pH 10.7) was added into each well and the plate was read on a Molecular Devices SpectraMax iD5 plate reader (absorbance at 405 nm with reference filter at 620 nm). After background subtraction, the percentage degranulation (percent beta-hexosaminidase release) was calculated as 100×(supernatant values)/(supernatant+lysate values), followed by analysis using GraphPad Prism software to calculate an IC50 value for each compound.
The activity ranges are denoted as follows: “+++++” denotes antagonist activity <50 nM; “++++” denotes antagonist activity between 51 and 100 nM; “+++” denotes activity between 101 and 500 nM; “++” denotes activity between 501 and 1000 nM; and “+” denotes activity >1000 nM.

The target of another assay is T1, human MRGPRX2 (Homo sapiens, UniProt Q96LB1).
T1 construct: expressed in transfected cells
T1 sequence (Q96LB1 1-330): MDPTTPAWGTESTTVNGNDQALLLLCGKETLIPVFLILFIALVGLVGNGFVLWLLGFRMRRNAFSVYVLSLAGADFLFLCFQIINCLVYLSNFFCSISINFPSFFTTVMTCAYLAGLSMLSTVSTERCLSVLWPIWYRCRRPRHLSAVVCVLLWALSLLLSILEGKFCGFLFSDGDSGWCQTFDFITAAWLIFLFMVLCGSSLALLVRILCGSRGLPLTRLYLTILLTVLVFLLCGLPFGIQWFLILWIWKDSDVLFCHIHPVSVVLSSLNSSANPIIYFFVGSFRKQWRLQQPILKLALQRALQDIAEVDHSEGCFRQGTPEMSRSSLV
The assay can be described thus: MRGPRX2 Activity: IP-One HTRF antagonist assay in CHO cells stably expressing human MRGPRX2, versus Cortistatin-14. The note with it: versus 0.3 uM Cortistatin-14 agonist, IP-1 HTRF, read-out: MRGPR2 Antagonist Activity. Format: cell-based. Here is the method:
CHO cells stably transfected to express human MRGPRX2 were maintained in an incubator at 37° C. with 5% CO2 and grown in F12 (HAM) media with 10% fetal bovine serum (FBS), 1% Glutamax, 1% penicillin/streptomycin, 800 μg/mL Geneticin (G418), and 300 μg/mL Hygromycin B. Cells were plated in a 384-well assay plate at 20,000 cells per well in 12 μL of Opti-MEM and kept in an incubator overnight. On the day of the assay, compounds solubilized at 10 mM in DMSO were added as a 10-point curve (30 uM final top concentration with 1:3 serial dilutions) using a Tecan D300E digital dispenser. Agonists were diluted in assay buffer (final concentrations of 5.7 mM Tris-HCl, 43 mM NaCl, 50 mM LiCl, pH=8) and 2 μL of the agonist Cortistatin-14 (CPC Scientific, catalog CORT-002) are added to each well. Final concentrations of agonists were 0.3 μM Cortistatin-14. Final concentrations of DMSO were kept consistent across the plate. Plates were incubated in the dark for 1 hr at 37° C. and then for 1 hr at room temperature. IP-1 standards and HTRF detection reagents were added according to the IP-One-Gq Kit purchased from Cisbio (part number 62IPAPEJ) and incubated in the dark for 1 hr at room temperature. The plate was read on a Molecular Devices SpectraMax iD5 plate reader. The HTRF ratio was calculated from the raw data and graphed using GraphPad Prism to calculate an IC50 value for each compound.
The activity ranges are denoted as follows: “+++++” denotes antagonist activity <50 nM; “++++” denotes antagonist activity between 51 and 100 nM; “+++” denotes activity between 101 and 500 nM; “++” denotes activity between 501 and 1000 nM; and “+” denotes activity >1000 nM

`COc1ccc(C(=O)N[C@H]2CC[C@@H](Nc3cccc4nc(C(F)(F)F)cn34)CC2)cc1` [1-1]: the IC50 in the assay on Human LAD2 cells and on human MRGPRX2 was less than 50 nM each time. Regarding `O=C(N[C@H]1CC[C@@H](Nc2cccc3nc(C(F)F)cn23)CC1)c1ccc(NCC(F)F)cc1` [2-61], the IC50 in the assay with Human LAD2 cells is less than 50 nM. Regarding `CS(=O)(=O)Nc1cccc(C(=O)N[C@H]2CC[C@@H](Nc3cccc4sc(C(F)(F)F)cc34)CC2)c1` [2-6], the figures for the IC50 in the assay on Human LAD2 cells and on human MRGPRX2 were less than 50 nM and 51 to 100 nM, respectively.

On to `O=C(N[C@H]1CC[C@@H](Nc2cccc3nc(C(F)(F)F)cn23)CC1)c1cccc2cnsc12` [2-52], for which, in the assay with Human LAD2 cells, the IC50 is less than 50 nM. `COc1ccc(C(=O)N[C@H]2CC[C@@H](Nc3cccc4nc(C(F)F)cn34)CC2)c(NCC(F)(F)F)c1` [2-28]: the IC50 in the assay with Human LAD2 cells and on human MRGPRX2 was less than 50 nM each time. On to `O=C(N[C@H]1CC[C@@H](Nc2cccc3nc(C(F)F)cn23)CC1)c1ccccc1NCC(F)(F)F` [2-143], for which the IC50 in the assay on Human LAD2 cells and on human MRGPRX2 was less than 50 nM throughout.

Consider `O=C(N[C@H]1CC[C@@H](Nc2cccc3sc(C(F)(F)F)cc23)CC1)c1ccc(F)cc1` [Example 1, 4-fluoro-N-((1s,4s)-4-((2-(trifluoromethyl)benzo[b]thiophen-4-yl)amino)cyclohexyl) benzamide], for which the figures for the IC50 with Human LAD2 cells and at human MRGPRX2 were less than 50 nM and 101 to 500 nM, respectively. With `Cn1cc(C(=O)N[C@H]2CC[C@@H](Nc3cccc4nc(C(F)(F)F)cn34)CC2)c(Cl)n1` [2-137], the IC50 in the assay on Human LAD2 cells and on human MRGPRX2 was less than 50 nM in each case.

Consider `O=C(N[C@H]1CC[C@@H](Nc2cccc3nc(C(F)(F)F)cn23)CC1)c1cccc2cn[nH]c12` [2-10], for which the IC50 with Human LAD2 cells and at human MRGPRX2 was less than 50 nM in each case. As to `O=C(N[C@H]1CC[C@@H](Nc2cccc3nc(C(F)(F)F)cn23)CC1)c1cccc(NCC(F)F)c1` [2-178], the IC50 in the assay on Human LAD2 cells and at human MRGPRX2 was less than 50 nM throughout. Regarding `Cn1cc(C(=O)N[C@H]2CC[C@@H](Nc3cccc4nc(C(F)(F)F)cn34)CC2)c2ccccc21` [2-160], the IC50 in the assay on Human LAD2 cells and on human MRGPRX2 was less than 50 nM in each case. `O=C(N[C@H]1CC[C@@H](Nc2cccc3nc(C(F)F)cn23)CC1)c1ccccc1NCC(F)F` [2-142]: the IC50 with Human LAD2 cells and on human MRGPRX2 was less than 50 nM throughout. `CNc1ccccc1C(=O)N[C@H]1CC[C@@H](Nc2cccc3nc(C(F)(F)F)cn23)CC1` [2-71]: the IC50 in the assay with Human LAD2 cells was less than 50 nM. Still for that read-out and setting: the value for `O=C(N[C@H]1CC[C@@H](Nc2cccc3nc(C(F)F)cn23)CC1)c1ccccc1NCCF` [2-222] was less than 50 nM. `O=C(N[C@H]1CC[C@@H](Nc2cccc3nc(C(F)(F)F)cn23)CC1)c1cn(C(F)F)nc1C(F)F` [2-228]: the IC50 with Human LAD2 cells and on human MRGPRX2 was less than 50 nM throughout. On to `O=C(N[C@H]1CC[C@@H](Nc2cccc3nc(C(F)F)cn23)CC1)c1ccnc2[nH]ccc12` [2-24], for which the IC50 in the assay on Human LAD2 cells and at human MRGPRX2 was less than 50 nM throughout.

`O=C(N[C@H]1CC[C@@H](Nc2cccc3nc(C(F)(F)F)cn23)CC1)c1cccc2c(F)n[nH]c12` [2-153]: the IC50 in the assay on Human LAD2 cells and at human MRGPRX2 was less than 50 nM throughout.

As to `Cn1cc(C(=O)N[C@H]2CC[C@@H](Nc3cccc4nc(C(F)F)cn34)CC2)c(C(F)F)n1` [2-286], the IC50 at human MRGPRX2 was 101 to 500 nM.

Consider `O=C(N[C@H]1CC[C@@H](Nc2cccc3nc(C(F)(F)F)cn23)CC1)c1ccnc2[nH]ccc12` [2-168], for which the IC50 on human MRGPRX2 was less than 50 nM.

With `O=C(N[C@H]1CC[C@@H](Nc2cccc3nc(C(F)(F)F)cn23)CC1)c1noc2ccccc12` [2-290], the IC50 on human MRGPRX2 lay within 101 to 500 nM. Still for that read-out and setting: the value for `N#Cc1cc2c(N[C@H]3CC[C@@H](NC(=O)c4ccc(F)cc4)CC3)cccc2s1` [1-20] was 51 to 100 nM; that for `Cc1ncc(C(=O)N[C@H]2CC[C@@H](Nc3cccc4nc(C(F)(F)F)cn34)CC2)n1C` [2-134] was 101 to 500 nM; that for `O=C(N[C@H]1CC[C@@H](Nc2cccc3nc(C(F)F)cn23)CC1)c1nn2ccccc2c1NCC(F)F` [2-269] was 101 to 500 nM.

On to `Cc1cc2c(C(=O)N[C@H]3CC[C@@H](Nc4cccc5nc(C(F)(F)F)cn45)CC3)cccc2n1C` [2-198], for which the IC50 on human MRGPRX2 was less than 50 nM. Turning to `Cn1cc(C(=O)NC2CCC(Nc3cccc4nc(C(F)(F)F)cn34)CC2)c2ccccc21` (centres unmarked) [2-289], the IC50 on human MRGPRX2 was less than 50 nM.
